Tested on: Diamondback moth (Plutella xylostella)
Experiment: Test Example 1: Japanese radish seed treatment, mortality of Diamondback moth larvae
Format: in vivo
Settings: 48 h, average of two replications; for mortality at 0.01 mg: dose 0.01 mg/1 grain of seed; for mortality at 0.2 mg: dose 0.2 mg/1 grain of seed
Method: Each of the present fused heterocyclic compounds 3, 4, 5, 9, 15, 16, 17, 18, 19, 20, 22, 25, 72, 74, 85, 130, 399, 409, 414, 419, 443, 444, 445, 464 and 467 was dissolved in acetone (available from Wako Pure Chemical Industries, Ltd.) containing 5% (W/V) SOLGEN TW-20 (available from Daiichi-Kogyo Seiyaku Co. Ltd.) so as to give a prescribed concentration, and to prepare the testing solution.
Nine (9) grains of the Japanese raddish (Raphanus sativas var. longipinnatus) were placed in a 2 ml volume polypropylene microtube (manufactured by As One Co.) and thereto was added 18 μl of the above testing solution and the seeds in the microtube were shaken and stirred on Stirrer (Trade name: VORTEX-GENIE2, manufactured by Scientific Industries, Inc.). After the testing solution was spread uniformly to the whole seed, the seeds were allowed to air dry.
To a 90 ml volume of plastic cup filled with ten (10) g of culture soil (Trade name: Aisai No. 1; available from Katakura Chikkarin Co., Ltd.) was added water (5 ml) and thereto was seeded three (3) grains of the above seeds.
At four days after the seeding, Diamondback moth (Plutella xylostella) at the third instar larval stages were released in a ratio of 10 (ten) heads of insects per the cup, and then the cups were covered with nylon gauze and covered with a lid (hereinafter, referred to as “treated group”).
On the other hand, Japanese raddish was seeded by the similar procedures to the treated group except that the present fused heterocyclic compound was not dissolved in acetone (available from Wako Pure Chemical Industries, Ltd.) containing 5% (W/V) SOLGEN TW-20 (available from Daiichi-Kogyo Seiyaku Co. Ltd.), and the larvae were released, and the cups were covered with a lid (hereinafter, referred to as “Untreated group”).
At two days after the release, the surviving and death of the larvae were observed and on basis of the results of the observation, the mortalities of both groups were calculated by the following equation 1), respectively. Two replication tests were performed on each group. The average value is shown below. Mortality (%)=(Total number of […])/Total number of Tested insects×100 Equation 1)

[1] = Diamondback moth third instar larvae released 4 days after seeding, observed 2 days after release
[2] = third instar larvae released four days after seeding, observed two days after release

CCS(=O)(=O)c1cccnc1-c1nc2cc([S+]([O-])C(F)(F)F)cnc2n1C (stereo not drawn) [Present fused heterocyclic compound 20, 2-(3-ethylsulfonyl-pyridin-2-yl)-3-methyl-6-trifluoromethylsulfinyl-3H-imidazo[4,5-b]pyridine]
mortality at 0.01 mg [1]: 100% | mortality at 0.2 mg [1]: 100%

CCS(=O)(=O)c1cc(C(OC)(OC)OC)cnc1-c1nc2cc(C(F)(F)C(F)(F)F)cnc2n1C [Present fused heterocyclic compound 414, 2-(3-ethylsulfonyl-5-trimethoxymethyl-pyridin-2-yl)-3-methyl-6-pentafluoroethyl-3H-imidazo[4,5-b]pyridine]
mortality at 0.01 mg [1]: 95% | mortality at 0.2 mg [1]: 100%

CCSc1cc(C(F)(F)F)cnc1-c1nc2cc(C(F)(F)C(F)(F)F)cnc2n1C [Present fused heterocyclic compound 17, 2-(3-Ethylsulfanyl-5-trifluoromethyl-pyridin-2-yl)-3-methyl-6-pentafluoroethyl-3H-imidazo[4,5-b]pyridine]
mortality at 0.01 mg [1]: 100% | mortality at 0.2 mg [1]: 100%

Cn1c(-c2ncc(C(F)(F)F)cc2S(C)(=O)=O)nc2cc(C(F)(F)C(F)(F)F)cnc21 [Present fused heterocyclic compound 419, 2-(3-Methylsulfonyl-5-trifluoromethylpyridin-2-yl)-3-methyl-6-pentafluoroethyl-3H-imidazo[4,5-b]pyridine]
mortality at 0.01 mg [1]: 100% | mortality at 0.2 mg [1]: 100%

CCS(=O)(=O)c1cccnc1-c1nc2cc(C(F)(F)F)c[n+]([O-])c2s1 [Present fused heterocyclic compound 22, 2-(3-ethylsulfonyl-2-yl)-6-(trifluoromethyl)thiazolo[5,4-b]pyridine 4-oxide]
mortality at 0.01 mg [1]: 100% | mortality at 0.2 mg [1]: 100%

CCS(=O)(=O)c1cc(C(F)(F)F)cnc1-c1nc2cc(C(F)(F)F)cnc2n1C [Present fused heterocyclic compound 5, 2-(3-ethylsulfonyl-5-trifluoromethylpyridin-2-yl)-3-methyl-6-trifluoromethyl-3H-imidazo[4,5-b]pyridine]
mortality at 0.01 mg [1]: 100% | mortality at 0.2 mg [1]: 100%

CCS(=O)(=O)c1cc(C(F)(F)C(F)(F)F)cnc1-c1nc2cc(C(F)(F)C(F)(F)F)cnc2n1C [Present fused heterocyclic compound 74, 2-(3-ethylsulfonyl-5-pentafluoroethylpyridin-2-yl)-3-methyl-6-pentafluoroethyl-3H-imidazo[4,5-b]pyridine]
mortality at 0.01 mg [1]: 100% | mortality at 0.2 mg [1]: 100%

CCSc1cccnc1-c1nc2cc(I)cnc2n1C [Present fused heterocyclic compound 9, 2-(3-ethylsulfanyl-pyridin-2-yl)-6-iodo-3-methyl-3H-imidazo[4,5-b]pyridine]
mortality at 0.01 mg [1]: 100% | mortality at 0.2 mg [1]: 100%

CCS(=O)(=O)c1cc(C(F)(F)F)cnc1-c1nc2cc(C(F)(F)C(F)(F)F)cnc2n1C [Present fused heterocyclic compound 19, 2-(3-ethylsulfonyl-5-trifluoromethyl-pyridin-2-yl)-3-methyl-6-pentafluoroethyl-3H-imidazo[4,5-b]pyridine]
mortality at 0.01 mg [1]: 100% | mortality at 0.2 mg [1]: 100%

CCS(=O)(=O)c1cccnc1-c1nc2cc(C(F)(F)C(F)(F)F)cnc2o1 [Present fused heterocyclic compound 464, 2-(3-Ethylsulfonylpyridin-2-yl)-6-pentafluoroethyl-oxazolo[5,4-b]pyridine]
mortality at 0.01 mg [1]: 100% | mortality at 0.2 mg [1]: 100%

CCS(=O)(=O)c1cc(C(F)(F)F)cnc1-c1nc2cc(S(=O)(=O)C(F)(F)F)cnc2n1C [Present fused heterocyclic compound 25, 2-(3-Ethylsulfonyl-5-trifluoromethyl-pyridin-2-yl)-3-methyl-6-trifluoromethylsulfonyl-3H-imidazo[4,5-b]pyridine]
mortality at 0.01 mg [1]: 100% | mortality at 0.2 mg [1]: 100%

CCS(=O)(=O)c1cccnc1-c1nc2cc(S(=O)(=O)C(F)(F)F)ccc2o1 [Present fused heterocyclic compound 445, 2-(3-ethylsulfonylpyridin-2-yl)-5-(trifluoromethylsulfonyl)benzoxazole]
mortality at 0.01 mg [1]: 100% | mortality at 0.2 mg [1]: 100%

CCSc1cc(C(F)(F)F)cnc1-c1nc2cc(C(F)(F)F)cnc2n1C [Present fused heterocyclic compound 4, 2-(3-ethylsulfanyl-5-trifluoromethylpyridin-2-yl)-3-methyl-6-trifluoromethyl-3H-imidazo[4,5-b]pyridine]
mortality at 0.01 mg [1]: 100% | mortality at 0.2 mg [1]: 100%

CCS(=O)(=O)c1cccnc1-c1nc2cc(C(F)(F)F)cc(C#N)c2n1C [Present fused heterocyclic compound 130, 7-Cyano-2-(3-ethylsulfonylpyridin-2-yl)-1-methyl-5-trifluoromethyl-1H-benzimidazole]
mortality at 0.01 mg [1]: 100% | mortality at 0.2 mg [1]: 80%

CCS(=O)(=O)c1cccnc1-c1nc2cc([S+]([O-])C(F)(F)F)ccc2o1 (stereo not drawn) [Present fused heterocyclic compound 444, 2-(3-ethylsulfonylpyridin-2-yl)-5-(trifluoromethylsulfinyl)benzoxazole]
mortality at 0.01 mg [1]: 100% | mortality at 0.2 mg [1]: 100%

CCS(=O)(=O)c1cccnc1-c1nc2cc(C(F)(F)C(F)(F)F)ccc2o1 [Present fused heterocyclic compound 467, 2-(3-Ethylsulfonylpyridin-2-yl)-5-pentafluoroethyl-benzoxazole]
mortality at 0.01 mg [2]: 100% | mortality at 0.2 mg [2]: 100%

CCS(=O)(=O)c1cccnc1-c1nc2cc(SC(F)(F)F)ccc2o1 [Present fused heterocyclic compound 443, 2-(3-ethylsulfonylpyridin-2-yl)-5-(trifluoromethylsulfanyl)benzoxazole]
mortality at 0.01 mg [1]: 100% | mortality at 0.2 mg [1]: 100%

CCS(=O)(=O)c1cc(C(F)(F)F)cnc1-c1nc2cc(C(F)(F)C(F)(F)F)c[n+]([O-])c2n1C [Present fused heterocyclic compound 409, 2-(3-ethylsulfonyl-5-trifluoromethyl-pyridin-2-yl)-3-methyl-6-pentafluoroethyl-3H-imidazo[4,5-b]pyridine 4-oxide]
mortality at 0.01 mg [1]: 100% | mortality at 0.2 mg [1]: 100%

CCS(=O)(=O)c1cccnc1-c1nc2cc(C(F)(F)F)cnc2n1C [Present fused heterocyclic compound 3, 2-(3-ethylsulfonylpyridin-2-yl)-3-methyl-6-trifluoromethyl-3H-imidazo[4,5-b]pyridine]
mortality at 0.01 mg [1]: 100% | mortality at 0.2 mg [1]: 100%

CCS(=O)(=O)c1cccnc1-c1nc2cc(S(=O)(=O)C(F)(F)F)cnc2n1C [Present fused heterocyclic compound 16, 2-(3-ethylsulfonyl-pyridin-2-yl)-3-methyl-6-trifluoromethylsulfonyl-3H-imidazo[4,5-b]pyridine]
mortality at 0.01 mg [1]: 100% | mortality at 0.2 mg [1]: 100%

CCS(=O)(=O)c1cc(C(F)(F)C(F)(F)F)cnc1-c1nc2cc(C(F)(F)F)cnc2n1C [Present fused heterocyclic compound 72, 2-(3-ethylsulfonyl-5-pentafluoroethylpyridin-2-yl)-3-methyl-6-trifluoromethyl-3H-imidazo[4,5-b]pyridine]
mortality at 0.01 mg [1]: 100% | mortality at 0.2 mg [1]: 100%

Reference: patent US9883675B2, “Method for controlling pests” (SUMITOMO CHEMICAL COMPANY, LIMITED, priority 2013, dated 2018)
